Test results as given in patent publication US20210290557A1, “MULTI-PARTICULATE PHARMACEUTICAL COMPOSITION, IMMEDIATE RELEASE PELLETS, SUSTAINED RELEASE PELLETS, ENTERIC RELEASE PELLETS AND USE THEREOF” (Industrial Technology Research Institute, priority 2019, published 2021).

Assay: Solubility test for sobrerol in dissolution medium with different pH and purified water
Format: physicochemical
Protocol: 1. The Preparation of Dissolution Medium with Different pH Levels:
(1) Dissolution Medium with pH 2.5
7.164 g of disodium hydrogen phosphate (containing 12 molecules of water) was added to a 100 mL volumetric flask, then purified water was added to quantify to 100 mL, and then stirred using a stir bar. After the disodium hydrogen phosphate (containing 12 molecules of water) in the volumetric flask was completely dissolved, a 0.2 M disodium hydrogen phosphate solution was obtained.
19.213 g of anhydrous citric acid was assed to a 1 L volumetric flask, then purified water water was added to quantify to 1 L, and then stirred using a stir bar. After the anhydrous citric acid in the volumetric flask was completely dissolved, a 0.1 M citric acid solution was obtained.
Next, According to the list of formulas of McIlvaine buffer with different pH values, 0.2 M […] solution and 0.1 M citric acid solution were mixed at a ratio of 1.71:18.29 to obtain a dissolution medium with pH 2.5.
(2) Dissolution Medium with pH 4.5
15.6 g of Sodium dihydrogen phosphate (containing 2 molecules of water) was added to a 1 L volumetric flask, then purified water water was added to quantify to 1 L, and then stirred using a stir bar. After the sodium dihydrogen phosphate (containing 2 molecules of water) in the volumetric flask was completely dissolved, a phosphate dissolution medium with pH 4.5 was obtained.
(3) Dissolution Medium with pH 6.8
7.8 g of Sodium dihydrogen phosphate (containing 2 molecules of water) and 0.94 g of sodium hydroxide were added to a 1 L volumetric flask, then purified water water was added to quantify to 1 L, and then stirred using a stir bar. […]
250 mL of dissolution medium prepared above or purified water water was added to a beaker and a stir bar was added for stirring. […] Sobrerol was continuously added until sobrerol cannot be completely dissolved within 30 minutes, and then the total amount of sobrerol added was counted, that was, the actual solubility limit of sobrerol.

soluble amount of sobrerol (actual solubility limit) (250 mL dissolution medium with pH 2.5, 4.5, 6.8 or purified water, all media): > 900 mg
effect of pH on solubility of sobrerol (dissolution medium with different pH and purified water): not affected by pH
Compound: CC1=CCC(C(C)(C)O)CC1O (stereo not drawn) [sobrerol]
solubility classification according to FDA Biopharmaceutics Classification System guideline (soluble amount compared with the daily total of 900 mg): meets the specifications for high solubility drugs
